Source: publication PMC9399069, “Imaging PARP with [^18F]rucaparib in pancreatic cancer models” (European Journal of Nuclear Medicine and Molecular Imaging, 2022)
Several values for one entry are separate records, joined by “and”; a condition that tells them apart may be missing. Identical values can stand only once. Like-named read-outs stand apart in the source and are kept apart here.

Tests used:
[1] = test system: PSN1 xenografts; design: method as in PMID 30389822; settings: cited from earlier work
[2] = test system: AsPC1 cells; assay: In vitro uptake and binding selectivity of [18F]rucaparib in AsPC1 cells; assay type: cell-based, human; settings: [TotalF]rucaparib 258 nM, 37 °C, Fig. 1B
Procedure: (§1) AsPC1 (1 × 10^5 cells/well) and PSN1 cells (7.5 × 10^4 cells/well) were seeded separately in 24-well plates (in 300 μL growth medium) and allowed to adhere for at least 20 h. […] To assess [^18F]rucaparib-binding selectivity, unlabelled PARP inhibitors, IMPDH2 or ALDH2 inhibitor, were added (100 μM, in 270 μL growth medium) for 45 min at 37 °C before addition of [^18F]rucaparib (156 kBq, 6.8 GBq/μmol; [^TotalF]rucaparib final concentration: 100 nM), and the cells were incubated at 37 °C for a further 45 min. Cell culture medium was removed, and cells were washed with PBS. Cells were lysed using RIPA buffer for 15 min at room temperature, and the amount of ^18F in the cell lysates was measured using an automated gamma counter (PerkinElmer), normalising for the number of cells.
(§2) Cells were lysed and the amount of ^18F in the cell lysates was measured as above.

[3] = test system: PSN1 cells; assay: Cell retention of [18F]rucaparib and [18F]olaparib in PSN1 cells; assay type: cell-based, human
Procedure: (§3) AsPC1 (1 × 10^5 cells/well) and PSN1 cells (7.5 × 10^4 cells/well) were exposed to [^18F]rucaparib (100 kBq, 4.8 GBq/μmol; [^TotalF]rucaparib final concentration: 258 nM) or [^18F]olaparib (400 kBq, 2.8 GBq/μmol: [^TotalF]olaparib final concentration: 242 nM) in 24-well plates at 37 °C for 30 min. Cell culture medium was removed, and cells were washed with PBS, followed by the addition of fresh medium (300 μL). Cells were then further incubated at 37 °C. Cell culture medium was removed, and cells were washed with PBS at different times (0–3 h). Cells were lysed using RIPA buffer for 15 min at room temperature, and the amount of ^18F in the cell lysates was measured as above.

[4] = test system: PSN1 xenografts; assay: Dynamic PET/CT imaging of [18F]rucaparib in PSN1 tumour-bearing mice; assay type: in vivo, Balb/c nu/nu mice
Procedure: Female Balb/c nu/nu (OlaHsd-Foxn1^nu) mice, aged 4–6 weeks, were purchased from Envigo (UK). Animals were housed in IVC cages, up to 6 per cage, in an artificial day–night cycle facility. Food and water were provided ad libitum. PSN1 cells were harvested using trypsin, washed twice with PBS and reconstituted in PBS:Matrigel® Matrix High Concentration (1:1). Cell suspensions (PSN1: 2 × 10^6 cells/ 100 μL) were injected subcutaneously in the lower right flank. […] Animal was anesthetised by 4% isoflurane gas (0.5 L/min O2) and maintained at 2.5% at 37 °C throughout the duration of image acquisition. PET images were reconstructed using U-SPECT-Rec3.22 software (MILabs, Utrecht, The Netherlands), applying a pixel-based algorithm, ordered subset expectation maximisation (OSEM) with 6 subsets, 4 iterations and 0.8 mm voxel size for fluorine-18 (energy window settings 477.9–584.1 keV). Reconstructed PET and CT images were viewed and analysed using PMOD v.3.37 (PMOD Technologies, Zurich, Switzerland).

[5] = test system: AsPC1 cells; assay: Cell retention of [18F]rucaparib and [18F]olaparib in AsPC1 cells; assay type: cell-based, human
Procedure: as §3

[6] = test system: PSN1 cells; assay: In vitro uptake and binding selectivity of [18F]rucaparib in PSN1 cells; assay type: cell-based, human; settings: 37 °C
Procedure: as §1, §2

[7] = test system: PSN1 xenografts; assay: Ex vivo biodistribution of [18F]rucaparib in PSN1 tumour-bearing mice; design: species or system Balb/c nu/nu mice; settings: for Ex vivo biodistribution, Blood / Ex vivo biodistribution, Bone / Ex vivo biodistribution, Fat / Ex vivo biodistribution, Heart / Ex vivo biodistribution, Kidney / Ex vivo biodistribution, Large intestine / Ex vivo biodistribution, Lung / Ex vivo biodistribution, Muscle / Ex vivo biodistribution, Pancreas / Ex vivo biodistribution, Small intestine / Ex vivo biodistribution, Tumour: i.v.; for Tumour uptake / Tumour-to-blood (T/B) ratio: PSN1 xenografts; for Tumour uptake: mean ± SD
Procedure: Female Balb/c nu/nu (OlaHsd-Foxn1^nu) mice, aged 4–6 weeks, were purchased from Envigo (UK). Animals were housed in IVC cages, up to 6 per cage, in an artificial day–night cycle facility. Food and water were provided ad libitum.
PSN1 cells were harvested using trypsin, washed twice with PBS and reconstituted in PBS:Matrigel® Matrix High Concentration (1:1). Cell suspensions (PSN1: 2 × 10^6 cells/ 100 μL) were injected subcutaneously in the lower right flank.
Animals were administered [^18F]rucaparib (0.87–11.38 MBq in 100 μL of PBS, Am = 1.5–30.9 GBq/μmol) by intravenous injection via the lateral tail vein. To evaluate the selectivity of tumour uptake, an excess of unlabelled rucaparib or olaparib (0.5 mg) was co-administered as a blocking agent in some animals. Dynamic PET images (1 h) were acquired using a MILabs VECTor^4 camera, equipped with an ultra-high resolution rat/mouse collimator (1.8 mm), followed by a cone-beam CT scan (55 kV, 0.19 mA) for anatomical reference and attenuation correction. Animal was anesthetised by 4% isoflurane gas (0.5 L/min O2) and maintained at 2.5% at 37 °C throughout the duration of image acquisition. PET images were reconstructed using U-SPECT-Rec3.22 software (MILabs, Utrecht, The Netherlands), applying a pixel-based algorithm, ordered subset expectation maximisation (OSEM) with 6 subsets, 4 iterations and 0.8 mm voxel size for fluorine-18 (energy window settings 477.9–584.1 keV). Reconstructed PET and CT images were viewed and analysed using PMOD v.3.37 (PMOD Technologies, Zurich, Switzerland).
Either 1 h or 2 h after radiolabelled compound injection, animals were euthanised. Selected organs, tissues and blood were removed, and the percentage of the injected dose per gram of tissue (%ID/g) was determined, using a HIDEX automated gamma counter.

[8] = PSN1 tumour-bearing mice, i.v., n=3
[9] = PSN1 tumour-bearing mice, i.v., n=3, biphasic
[10] = 1 h post-injection, individual animals (n=3)
[11] = 2 h post-injection, individual animals (n=6)

Compound: O=C(c1cc(Cc2n[nH]c(=O)c3ccccc23)ccc1[18F])N1CCN(C(=O)C2CC2)CC1 [[^18F]olaparib]
- Tumour uptake ([1]; PSN1 xenografts, 1 h post-injection): 3.16 ± 0.36 %ID/g
- Weighted blood half-life ([1]; same xenograft mice): 32.3 min

Compound: CNCc1ccc(-c2[nH]c3cc([18F])cc4c3c2CCNC4=O)cc1 [[^18F]rucaparib]
- Cellular uptake (time) [2]: < 1 min
- Uptake and retention compared with [TotalF]olaparib [3]: 100 fold
- Elimination pathways ([4]; PSN1 tumour-bearing mice, dynamic imaging and biodistribution): hepatobiliary and renal
- Half-life for liver elimination ([4]; PSN1 tumour-bearing mice, i.v.): 31 ± 19 min
- Weighted blood half-life ([4]; PSN1 tumour-bearing mice, i.v., 8.9 μg or 27.5 nmol/kg): 4.3 ± 0.62 min
- Blood clearance, fraction of fast phase [4, 8]: 54 ± 10%
- Blood clearance, fraction of slow phase [4, 8]: 46 ± 10%
- Blood clearance, fast half-life [4, 9]: 1.7 ± 0.44 min
- Blood clearance, slow half-life [4, 9]: 16 ± 10 min
- Tumour-to-muscle (T/M) ratio from PET/CT images ([4]; PSN1 xenografts, 50 min post-injection): 2.3 ± 1.1
- Time of tumour uptake (VOI analysis) ([4]; PSN1 xenografts, dynamic PET): ≤ 10 min
- Time of uptake in kidney and bladder ([4]; dynamic PET, indicates fast renal clearance): ≤ 5 min
- Uptake and retention compared with [TotalF]olaparib [5]: 100 fold
- Cellular uptake (time) ([6]; PSN1 cells, [TotalF]rucaparib 258 nM, Fig. 1B): < 1 min
- Cell association of [18F]rucaparib ([6]; PSN1 versus AsPC1 cells, 64 nM and 258 nM, 30 min): higher in PSN1 cells than in AsPC1 cells
- Ex vivo biodistribution, Blood [7, 10]: 3.51 %ID/g and 3.67 %ID/g and 3.59 %ID/g
- Ex vivo biodistribution, Bone [7, 10]: 4.90 %ID/g and 6.79 %ID/g and 5.26 %ID/g
- Ex vivo biodistribution, Fat [7, 10]: 6.53 %ID/g and 4.98 %ID/g and 6.82 %ID/g
- Ex vivo biodistribution, Heart [7, 10]: 13.27 %ID/g and 16.24 %ID/g and 17.47 %ID/g
- Ex vivo biodistribution, Kidney [7, 10]: 17.24 %ID/g and 30.17 %ID/g and 36.00 %ID/g
- Ex vivo biodistribution, Large intestine [7, 10]: 12.50 %ID/g and 16.33 %ID/g and 14.08 %ID/g
- Ex vivo biodistribution, Lung [7, 10]: 17.76 %ID/g and 25.71 %ID/g and 27.51 %ID/g
- Ex vivo biodistribution, Muscle [7, 10]: 2.63 %ID/g and 4.25 %ID/g and 3.13 %ID/g
- Ex vivo biodistribution, Pancreas [7, 10]: 19.47 %ID/g and 23.54 %ID/g and 23.22 %ID/g
- Ex vivo biodistribution, Small intestine [7, 10]: 33.79 %ID/g and 46.24 %ID/g
- Ex vivo biodistribution, Tumour [7, 10]: 5.25 %ID/g and 6.05 %ID/g and 5.16 %ID/g
- Ex vivo biodistribution, Blood [7, 11]: 0.92 %ID/g and 0.49 %ID/g and 0.48 %ID/g and 1.57 %ID/g and 0.51 %ID/g and 0.44 %ID/g
- Ex vivo biodistribution, Bone [7, 11]: 3.49 %ID/g and 2.71 %ID/g and 2.38 %ID/g and 3.10 %ID/g and 2.18 %ID/g and 2.26 %ID/g
- Ex vivo biodistribution, Fat [7, 11]: 1.32 %ID/g and 0.74 %ID/g and 0.84 %ID/g and 1.78 %ID/g and 1.03 %ID/g and 0.86 %ID/g
- Ex vivo biodistribution, Heart [7, 11]: 2.44 %ID/g and 2.15 %ID/g and 1.73 %ID/g (2×) and 1.61 %ID/g and 1.27 %ID/g
- Ex vivo biodistribution, Kidney [7, 11]: 7.28 %ID/g and 6.56 %ID/g and 5.54 %ID/g and 7.41 %ID/g and 4.70 %ID/g and 4.13 %ID/g
- Ex vivo biodistribution, Large intestine [7, 11]: 23.81 %ID/g and 19.26 %ID/g and 15.83 %ID/g and 25.44 %ID/g and 36.97 %ID/g and 43.06 %ID/g
- Ex vivo biodistribution, Lung [7, 11]: 8.77 %ID/g and 6.24 %ID/g and 4.58 %ID/g and 9.27 %ID/g and 5.27 %ID/g
- Ex vivo biodistribution, Muscle [7, 11]: 2.51 %ID/g and 1.58 %ID/g and 1.90 %ID/g and 2.77 %ID/g and 1.57 %ID/g (2×)
- Ex vivo biodistribution, Pancreas [7, 11]: 13.99 %ID/g and 9.45 %ID/g and 9.78 %ID/g and 11.07 %ID/g and 9.35 %ID/g and 7.70 %ID/g
- Ex vivo biodistribution, Small intestine [7, 11]: 16.44 %ID/g and 9.50 %ID/g and 19.42 %ID/g and 22.39 %ID/g and 10.51 %ID/g and 13.44 %ID/g
- Ex vivo biodistribution, Tumour [7, 11]: 2.58 %ID/g and 2.10 %ID/g and 1.74 %ID/g and 2.60 %ID/g and 3.45 %ID/g and 2.99 %ID/g
- Tumour uptake ([7]; 1 h after i.v. administration): 5.5 ± 0.5 %ID/g and 5.49 ± 0.49 %ID/g
- Tumour-to-blood (T/B) ratio ([7]; 1 h post-administration): 1.53 ± 0.11
- Tumour-to-blood (T/B) ratio ([7]; 2 h post-administration): 4.33 ± 2.1
- Tumour uptake ([7]; 2 h post-administration): 2.2 ± 0.34 %ID/g
